The values that follow come from US11242337B2, “Compounds useful for treating gastrointestinal tract disorders” (Ardelyx, Inc., priority 2017, dated 2022).

Usually inhibition stands for the drop in the measured response relative to a control, in per cent. A low value points to a response near the control.

One experiment has as its target T1, NHE3 (Homo sapiens, UniProt P48764).
T1 construct: expressed in transfected cells
T1 sequence (P48764 26-834): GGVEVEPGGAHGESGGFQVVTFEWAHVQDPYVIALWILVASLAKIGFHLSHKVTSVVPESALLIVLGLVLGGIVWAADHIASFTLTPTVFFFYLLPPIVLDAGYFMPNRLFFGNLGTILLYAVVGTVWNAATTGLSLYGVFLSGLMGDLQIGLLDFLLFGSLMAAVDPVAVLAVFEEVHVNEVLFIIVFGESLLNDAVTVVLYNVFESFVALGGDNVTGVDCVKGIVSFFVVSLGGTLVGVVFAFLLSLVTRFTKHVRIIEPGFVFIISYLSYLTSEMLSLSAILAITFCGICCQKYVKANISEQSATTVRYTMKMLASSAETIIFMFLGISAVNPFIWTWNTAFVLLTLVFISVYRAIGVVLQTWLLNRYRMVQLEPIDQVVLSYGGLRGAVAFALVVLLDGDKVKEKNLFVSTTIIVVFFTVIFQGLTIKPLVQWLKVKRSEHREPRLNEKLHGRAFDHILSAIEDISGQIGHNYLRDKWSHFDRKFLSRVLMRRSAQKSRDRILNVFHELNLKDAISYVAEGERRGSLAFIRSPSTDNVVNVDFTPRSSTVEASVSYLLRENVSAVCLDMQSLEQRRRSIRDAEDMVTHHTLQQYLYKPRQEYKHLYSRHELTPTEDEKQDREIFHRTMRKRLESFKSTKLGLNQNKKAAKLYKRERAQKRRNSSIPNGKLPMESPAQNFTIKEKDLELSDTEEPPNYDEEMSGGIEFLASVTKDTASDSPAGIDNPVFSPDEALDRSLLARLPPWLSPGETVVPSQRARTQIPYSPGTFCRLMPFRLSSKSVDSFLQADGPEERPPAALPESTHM
T1 sequence (Q99653 2-195 partner limits assumed): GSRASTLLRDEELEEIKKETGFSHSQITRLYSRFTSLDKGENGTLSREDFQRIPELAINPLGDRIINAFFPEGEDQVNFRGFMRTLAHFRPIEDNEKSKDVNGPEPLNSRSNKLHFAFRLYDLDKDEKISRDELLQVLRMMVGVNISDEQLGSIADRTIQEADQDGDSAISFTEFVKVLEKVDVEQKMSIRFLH
The experiment in a line: Cell-based assay of NHE-3 activity (pre-incubation inhibition), human. To be noted: human Preincubation; for pIC50: 0-30 μM test compound. The procedure, abridged: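 Activity read as initial rate of BCECF fluorescence ratio change per minute (ex 439/505, em 538 nm) following NH4Cl prepulse acid loading. Compound (0–30 μM) present during 10 min Na+-free acidification at room temperature; cells were PS120 fibroblasts stably co-expressing human NHE3 and NHERF2.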

In experiment [1] the test system is human duodenum monolayer culture. As to the kind of experiment: Sustained inhibition of apical acid secretion in human organoid monolayer cell cultures (duodenum). To be noted: for inhibition at 1 µM: Homo sapiens. Format: cell-based. The protocol:
Basal media (BM) consisted of advanced DMEM/F12 containing 10 mM HEPES Invitrogen, 15630-080), 1:100 Glutamax (Invitrogen, 35050-061), and 1:100 penicillin/streptomycin (Invitrogen, 15140-122). Supplemented basal media (SBM) contained 1:100 N2 (Invitrogen, 17502-048), 1:50 B27 (Invitrogen, 12587-010), 1 mM N-acetylcysteine (Sigma, A9165), and 10 nM [Leu15]-gastrin I (Sigma, G9145). Growth factors used included 50 ng per mL mouse EGF (Peprotech, 315-09), 100 ng per mL mouse noggin (Peprotech, 250-38), 500 ng per mL human R-spondin 1 (R&D, 4645-RS), 100 ng per mL mouse Wnt-3a (R&D, 1324-WN), 20 μM. Y-27632 (Tocris, 1254), 10 mM nicotinamide (Sigma, N0636), 500 nM A83-01 (Tocris, 2939), 10 μM SB202190 (Tocris, 1264). Transwells were 0.4 μm pore polyester membrane 24-well Transwell inserts (Corning). Cultures were incubated at 37° C. in 5% CO2.
Each human ileum monolayer culture well was washed twice with fresh SBM on the apical side on day 6 before compound dosing. All compound stocks were 10 mM dissolved in DMSO. Each compound stock was individually mixed with fresh SBM to reach final compound concentration 1 μM and dosed only on the apical side of the monolayer (total volume 200 μl). DMSO at the equivalent concentration was used as the vehicle control. Duplicate wells were dosed for each compound. On day 8, apical media pH was measured by pH electrode, to determine the ability of example compounds to produce sustained inhibition of NHE3 activity in a human monolayer culture system by preventing proton secretion into the apical compartment.
Human duodenum organoids were cultured in WENRNAS (Wnt, EGF, noggin, R-spondin1, Nicotinamide, A83-01, SB202190) and typically grown for 7-12 days before being used to plate monolayer cultures. On day 0, organoid cultures embedded in Matrigel were treated with TrypLE Express to break organoids into small pieces and/or single cells. The cells were resuspended to 0.5×10^6 cells/mL in SBM containing WENRAY (Wnt, EGF, noggin, R-spondin1, A83-01, Y-27632). Following this step, 200 μL of cell suspension was plated into the apical side of a 24-well Transwell (100,000 cells/well) and 600 μL of SBM with WENRAY was added to the basolateral side. Duodenum cells were differentiated with ENA (EGF, noggin, A83-01) on day 3. The color of apical compartment turns from pink or orange to yellow due to the increase in NHE3 expression after differentiation.

Where only a bound is given, the exact number is not on record here.

As for “3-[2-(2-[2-[(4-[[(1S,2S)-4,6-Dichloro-2-[(3R)-3-[methyl(propan-2-yl)amino]piperidin-1-yl]-2,3-dihydro-1H-inden-1-yl]oxy]benzene) sulfonamido]ethoxy]ethoxy)ethyl]-1-[4-([[2-(2-[2-[(4-[[(1S,2S)-4,6-dichloro-2-[(3R)-3-[methyl(propan-2-yl)amino]piperidin-1-yl]-2,3-dihydro-1H-inden-1-yl]oxy]benzene)sulfonamido]ethoxy]ethoxy)ethyl]carbamoyl]amino)butyl]urea; bis(trifluoroacetic acid) [Example 78]”, the “% inhibition” value on NHE3 is “C (>70%)”. For the same compound, in experiment [1] (1 μM apical, inhibition of apical acid secretion vs DMSO), the “% inhibition (duodenum)” value was “C (>70%)”.
Take `Cc1cc(S(=O)(=O)NCCOCCOCCNC(=O)NCCCCNC(=O)NCCOCCOCCNS(=O)(=O)c2ccc(O[C@H]3c4cc(Cl)cc(C)c4C[C@@H]3N(C)C)c(C)c2)ccc1O[C@H]1c2cc(Cl)cc(C)c2C[C@@H]1N(C)C` [Example 17, 3-[2-(2-[2-[(4-[[(1S,2S)-6-Chloro-2-(dimethylamino)-4-methyl-2,3-dihydro-1H-inden-1-yl]oxy]-3-methylbenzene)sulfonamido]ethoxy]ethoxy)ethyl]-1-[4-([[2-(2-[2-[(4-[[(1S,2S)-6-chloro-2-(dimethylamino)-4-methyl-2,3-dihydro-1H-inden-1-yl]oxy]-3-methylbenzene)sulfonamido]ethoxy]ethoxy)ethyl]carbamoyl]amino)butyl]urea]: at NHE3, the “% inhibition” value was “C (>70%)” and the pIC50 entry is “C (NHE3 pIC50 > 7)”. This compound showed an inhibition at 1 µM in experiment [1] of 50 to 70%.
On to `CN(C)[C@H]1Cc2c(Cl)cc(Cl)cc2[C@@H]1Oc1ccc(S(=O)(=O)NCCOCCOCCNC(=O)NCCCCNC(=O)NCCOCCOCCNS(=O)(=O)c2ccc(O[C@H]3c4cc(Cl)cc(Cl)c4C[C@@H]3N(C)C)c(F)c2)cc1F` [Example 23, 3-[2-(2-[2-[(4-[[(1S,2S)-4,6-Dichloro-2-(dimethylamino)-2,3-dihydro-1H-inden-1-yl]oxy]-3-fluorobenzene)sulfonamido]ethoxy]ethoxy)ethyl]-1-[4-([[2-(2-[2-[(4-[[(1S,2S)-4,6-dichloro-2-(dimethylamino)-2,3-dihydro-1H-inden-1-yl]oxy]-3-fluorobenzene)sulfonamido]ethoxy]ethoxy)ethyl]carbamoyl]amino)butyl]urea; bis(trifluoroacetic acid)], for which, on NHE3, the “% inhibition” value is on record as “C (>70%)” and the pIC50 result is on record as “C (NHE3 pIC50 > 7)”. In experiment [1], this compound registered an inhibition at 1 µM of 50 to 70%.
With `Cc1cc(Cl)cc2c1C[C@H](N(C)C)[C@H]2Oc1ccc(S(=O)(=O)NCCOCCOCCNC(=O)NCCCCNC(=O)NCCOCCOCCNS(=O)(=O)c2ccc(O[C@H]3c4cc(Cl)cc(C)c4C[C@@H]3N(C)C)c(F)c2)cc1F` [Example 24, 3-[2-(2-[2-[(4-[[(1S,2S)-6-Chloro-2-(dimethylamino)-4-methyl-2,3-dihydro-1H-inden-1-yl]oxy]-3-fluorobenzene)sulfonamido]ethoxy]ethoxy)ethyl]-1-[4-([[2-(2-[2-[(4-[[(1S,2S)-6-chloro-2-(dimethylamino)-4-methyl-2,3-dihydro-1H-inden-1-yl]oxy]-3-fluorobenzene)sulfonamido]ethoxy]ethoxy)ethyl]carbamoyl]amino)butyl]urea], at NHE3, the “% inhibition” value is “C (>70%)”. In addition, the inhibition at 1 µM in experiment [1] was in the range of 50 to 70%.
Turning to `Cc1cc(S(=O)(=O)NCCOCCOCCNC(=O)NCCCCNC(=O)NCCOCCOCCNS(=O)(=O)c2ccc(O[C@H]3c4cc(Cl)cc(Cl)c4C[C@@H]3N3CCC[C@@H](N(C)C)C3)c(C)c2)ccc1O[C@H]1c2cc(Cl)cc(Cl)c2C[C@@H]1N1CCC[C@@H](N(C)C)C1` [Example 26, 3-[2-(2-[2-[(4-[[(1S,2S)-4,6-Dichloro-2-[(3R)-3-(dimethylamino)piperidin-1-yl]-2,3-dihydro-1H-inden-1-yl]oxy]-3-methylbenzene)sulfonamido]ethoxy]ethoxy)ethyl]-1-[4-([[2-(2-[2-[4-[[(1S,2S)-4,6-dichloro-2-[(3R)-3-(dimethylamino)piperidin-1-yl]-2,3-dihydro-1H-inden-1-yl]oxy]-3-methylbenzenesulfonamido]ethoxy]ethoxy)ethyl]carbamoyl]amino)butyl]urea; bis(trifluoroacetic acid)], the “% inhibition” value on NHE3 is given as “C (>70%)”. The compound further had an inhibition at 1 µM in experiment [1] of 50 to 70%.
For the compound `Cc1cc(Cl)cc2c1C[C@H](N1CCC[C@@H](N(C)C)C1)[C@H]2Oc1ccc(S(=O)(=O)NCCOCCOCCNC(=O)NCCCCNC(=O)NCCOCCOCCNS(=O)(=O)c2ccc(O[C@H]3c4cc(Cl)cc(C)c4C[C@@H]3N3CCC[C@@H](N(C)C)C3)cc2)cc1` [Example 28, 3-[2-(2-[2-[(4-[[(1S,2S)-6-Chloro-2-[(3R)-3-(dimethylamino)piperidin-1-yl]-4-methyl-2,3-dihydro-1H-inden-1-yl]oxy]benzene)sulfonamido]ethoxy]ethoxy)ethyl]-1-[4-([[2-(2-[2-[(4-[[(1S,2S)-6-chloro-2-[(3R)-3-(dimethylamino)piperidin-1-yl]-4-methyl-2,3-dihydro-1H-inden-1-yl]oxy]benzene)sulfonamido]ethoxy]ethoxy)ethyl]carbamoyl]amino)butyl]urea; bis(trifluoroacetic acid)], on NHE3, the “% inhibition” value was “C (>70%)” and the pIC50 result is “C (NHE3 pIC50 > 7)”. The compound further displayed an inhibition at 1 µM in experiment [1] of 50 to 70%.
As for `Cc1cc(S(=O)(=O)NCCOCCOCCNC(=O)NCCCCNC(=O)NCCOCCOCCNS(=O)(=O)c2ccc(O[C@H]3c4cc(Cl)cc(C)c4C[C@@H]3N3CCC[C@@H](N(C)C)C3)c(C)c2)ccc1O[C@H]1c2cc(Cl)cc(C)c2C[C@@H]1N1CCC[C@@H](N(C)C)C1` [Example 29], at NHE3, the “% inhibition” value was “C (>70%)” and the pIC50 entry is “C (NHE3 pIC50 > 7)”. In experiment [1], the inhibition at 1 µM was > 70%.
For the compound `O=C(NCCCCNC(=O)NCCOCCOCCNS(=O)(=O)c1ccc(O[C@H]2c3cc(Cl)cc(Cl)c3C[C@@H]2N2CCNCC2)cc1)NCCOCCOCCNS(=O)(=O)c1ccc(O[C@H]2c3cc(Cl)cc(Cl)c3C[C@@H]2N2CCNCC2)cc1` [Example 31, 3-[2-(2-[2-[(4-[[(1S,2S)-4,6-Dichloro-2-(piperazin-1-yl)-2,3-dihydro-1H-inden-1-yl]oxy]benzene)sulfonamido]ethoxy]ethoxy)ethyl]-1-[4-([[2-(2-[2-[(4-[[(1S,2S)-4,6-dichloro-2-(piperazin-1-yl)-2,3-dihydro-1H-inden-1-yl]oxy]benzene)sulfonamido]ethoxy]ethoxy)ethyl]carbamoyl]amino)butyl]urea; bis(trifluoroacetic acid)], the “% inhibition” value at NHE3 is listed as “C (>70%)”. Besides, in experiment [1], the inhibition at 1 µM was > 70%.
